Data as given in patent US4210663A, “Halogen substituted benzopyran- and benzothiopyran-4-carboxylic acids” (Pfizer Inc., priority 1978, dated 1980).

Biological target: T1, aldose reductase (Bos taurus, UniProt P16116)
T1 construct: partially purified aldose reductase enzyme obtained from calf lens; from tissue; host or cells: calf lens
Assay: inhibition of aldose reductase enzyme activity (procedure of U.S. Pat. No. 3,821,383, based on Hayman et al.)
Type: biochemical
Conditions: partially purified aldose reductase from calf lens, / = results of duplicate tests; for inhibition at 100 µM: 10^-4 M
From the text: Pat. No. 3,821,383 and based on the procedure of Hayman et. al., Journal of Biological Chemistry, 240, 877 (1965). The substrate employed was partially purified aldose reductase enzyme obtained from calf lens. The results obtained with each compound at a concentration of 10^-4 M are expressed as percent inhibition of enzyme activity.

| inhibition at 100 µM [%] | % Inhibition at 10^-4 M (aldose reductase enzyme activity) [%] | Structure (SMILES) |
| --- | --- | --- |
| 69 | – | O=C(O)CC1CCOc2ccc(Cl)cc21 (stereo not drawn) [Example 18, 6-chloro-3,4-dihydro-2H-1-benzopyran-4-acetic acid] |
| 70 | – | O=C(O)C1CCSc2ccc(Cl)cc21 (stereo not drawn) [Example 16, 6-chloro-3,4-dihydro-2H-1-benzothiopyran-4-carboxylic acid] |
| 88 | 90 | O=C(O)C1CCOc2c1cc(Cl)c1ccccc21 (stereo not drawn) [Example 14, 6-chloro-3,4-dihydro-2H-naphtho[1,2-b]pyran-4-carboxylic acid] |
| 71 | – | O=C(O)C1CCOc2ccc(F)cc21 (stereo not drawn) [Example 10, 6-fluoro-3,4-dihydro-2H-1-benzopyran-4-carboxylic acid] |
| 85 | 81 | O=C(O)C1CCOc2ccc(Cl)cc21 (stereo not drawn) [Example 12, 6-chloro-3,4-dihydro-2H-1-benzopyran-4-carboxylic acid] |

Further lines, the compound ahead of its results:

| Structure (SMILES) | inhibition at 100 µM [%] | % Inhibition at 10^-4 M (aldose reductase enzyme activity) [%] |
| --- | --- | --- |
| Cc1cc(Cl)cc2c1OCCC2C(=O)O (stereo not drawn) [Example 6, 6-chloro-8-methyl-3,4-dihydro-2H-1-benzopyran-4-carboxylic acid] | 87 | 89 |
| O=C(O)C1CCSc2cc(Cl)c(Cl)cc21 (stereo not drawn) [Example 4, 6,7-dichloro-3,4-dihydro-2H-1-benzothiopyran-4-carboxylic acid] | 92 | 76 |
| O=C(O)C1CCOc2c(Cl)cc(Cl)cc21 (stereo not drawn) [Example 8, 6,8-dichloro-3,4-dihydro-2H-1-benzopyran-4-carboxylic acid] | 82 | 89 |
| O=C(O)C1CCOc2c(Cl)cc(-c3ccccc3)cc21 (stereo not drawn) [Example 2, 6-phenyl-8-chloro-3,4-dihydro-2H-1-benzopyran-4-carboxylic acid] | 74 | 67 |
